6 compounds from patent US20260378560A1, “APPROACHES TO DESIGNING AND PERFORMING COMPRESSED BIOLOGICAL EXPERIMENTS AND SYSTEMS FOR IMPLEMENTING THE SAME” (EXVIVO LABS INC., priority 2023, published 2026) can be followed below.

Assay [1] has as its system REH. As to the kind of experiment: Cell viability (CellTiter Glo), compressed perturbation pools with informed pool design, MAX-based deconvolution, REH.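 For DRS from MAX-based deconvolution: higher DRS means a larger drug effect.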 Particulars: REH; for DRS: None (measured individually), informed pool design table; for DRS from MAX-based deconvolution: Samples, 7 Pick 3 informed perturbation pools; for DRS, REH, MAX: compressed perturbation pools, informed pool design, MAX-based deconvolution. Summed up: (§1)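 Per-drug DRS recovered by MAX deconvolution, which assumes the strongest pool member masks the rest; after ranking, each drug in turn takes the DRS of the lowest-signal pool containing it, and leftovers score zero. Pools built from drug class and known toxic combinations; dose-response spans 1 nM to 10 μM, read by ATP-based luminescence.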
For orientation: ATP-based viability assays read luminescence as a measure of living cells.

The test system of assay [2] is MOLT-4. As to the kind of experiment: Cell viability (CellTiter Glo), library of cancer drugs, individual or sample compression with randomized (alphabetical) pools, MOLT-4. Format: cell-based. The following applies: for DRS: MOLT-4, None (measured individually); for DRS from deconvolution: MOLT-4, Samples, 7 Pick 3 randomized (alphabetical) sample pools. Summed up: (§2)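 Cells cultured with each drug individually at 1 nM–10 μM; viability by ATP luminescence (CellTiter Glo) to build dose-response curves and DRS. Samples read singly or pooled alphabetically (each drug in 3 of 7 pools), with pooled DRS recovered by additivity-based SUM deconvolution.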

For assay [3], the system named is MOLT-4. As to the kind of experiment: Cell viability (CellTiter Glo), compressed perturbation pools with informed pool design, MAX-based deconvolution, MOLT-4.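 For DRS from MAX-based deconvolution: higher DRS means a larger drug effect.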 Particulars: for DRS: MOLT-4, None (measured individually), informed pool design table; for DRS from MAX-based deconvolution: MOLT-4, Samples, 7 Pick 3 informed perturbation pools; for DRS, MOLT-4, MAX: compressed perturbation pools, informed pool design, MAX-based deconvolution. Summed up: as §1

Assay [4] deals with REH. As to the kind of experiment: Cell viability (CellTiter Glo), library of cancer drugs, individual or sample compression with randomized (alphabetical) pools, REH. Format: cell-based. Particulars: REH; for DRS: None (measured individually); for DRS from deconvolution: Samples, 7 Pick 3 randomized (alphabetical) sample pools. In short, it runs like this:
as §2

Molecules are shown by their SMILES.

Consider `C=CC(=O)Nc1cc(Nc2nccc(-c3cn(C)c4ccccc34)n2)c(OC)cc1N(C)CCN(C)C` [Osimertinib], for which, in the assay with REH [1], the DRS is reported as 0.10; the “DRS from MAX-based deconvolution” value was found to be 0.00; the “DRS, REH, MAX” value is reported as 0.00. In the assay with MOLT-4 [2], the DRS was 1.84 and the DRS from deconvolution is given as 0.99. Besides, in the assay on MOLT-4 [3], the DRS was found to be 0.10; the “DRS from MAX-based deconvolution” value is reported as 0.00; the “DRS, MOLT-4, MAX” value worked out at 0.00. In the assay with REH [4], this compound registered a DRS of 5.84 and a DRS from deconvolution of 6.12.
For `Cc1[nH]c2ccccc2c1CCNCc1ccc(/C=C/C(=O)NO)cc1` [Panobinostat], the DRS worked out at 3.01 in the assay with REH [1], 15.70 in the assay with MOLT-4 [2], 3.01 in the assay with MOLT-4 [3] and 13.34 with REH [4]. The “DRS from MAX-based deconvolution” value with REH [1] was determined as 3.96; in the assay on MOLT-4 [3], 3.24. Besides, the figures for the DRS from deconvolution in the assay on MOLT-4 [2] and with REH [4] were 16.56 and 13.96, respectively.
Regarding `COc1cc2ncnc(Nc3ccc(F)c(Cl)c3)c2cc1OCCCN1CCOCC1` [Gefitinib], in the assay with REH [1], the DRS is on record as 0.00; the “DRS from MAX-based deconvolution” value stood at 0.00; the “DRS, REH, MAX” value amounted to 4.06. Also, in the assay with MOLT-4 [2], the DRS worked out at 2.96 and the DRS from deconvolution came to 3.02. For the same compound, in the assay on MOLT-4 [3], the DRS turned out to be 0.00; the “DRS from MAX-based deconvolution” value worked out at 0.00; the “DRS, MOLT-4, MAX” value stood at 0.00. In the assay on REH [4], this compound gave a DRS of 5.66 and a DRS from deconvolution of 5.59.
Turning to `COc1c(OCCCN2CCOCC2)ccc2c1N=C(NC(=O)c1cnc(N)nc1)N1CCN=C21` [Copanlisib], the DRS with REH [1] is on record as 1.63; in the assay on MOLT-4 [2] it was 9.01; in the assay with MOLT-4 [3] it was 0.03; in the assay with REH [4] it was 12.67. Also, the entries for the “DRS from MAX-based deconvolution” value in the assay on REH [1] and with MOLT-4 [3] were 2.12 and 0.03, respectively. The DRS from deconvolution with MOLT-4 [2] came out at 9.65; with REH [4] it was 12.51.
Regarding `N#Cc1ccnc(N2C(=O)CC[C@H]2C(=O)N(c2cncc(F)c2)[C@H](C(=O)NC2CC(F)(F)C2)c2ccccc2Cl)c1` [Ivosidenib], the DRS in the assay with REH [1] amounted to 3.12; with MOLT-4 [2], 0.11; with MOLT-4 [3], 1.12; in the assay with REH [4], 0.37. Moreover, the “DRS from MAX-based deconvolution” value was found to be 3.55 with REH [1] and 1.96 in the assay with MOLT-4 [3]. The DRS from deconvolution with MOLT-4 [2] and in the assay with REH [4] was 0.00 in each case.
Consider `CC1(C)CCC(CN2CCN(c3ccc(C(=O)NS(=O)(=O)c4ccc(NCC5CCOCC5)c([N+](=O)[O-])c4)c(Oc4cnc5[nH]ccc5c4)c3)CC2)=C(c2ccc(Cl)cc2)C1` [Venetoclax], for which, in the assay with REH [1], the DRS is on record as 4.37; the “DRS from MAX-based deconvolution” value turned out to be 0.00; the “DRS, REH, MAX” value turned out to be 4.43. In the assay with MOLT-4 [2], this compound came in with a DRS of 2.74 and a DRS from deconvolution of 2.89. Besides, in the assay with MOLT-4 [3], the DRS was found to be 3.37; the “DRS from MAX-based deconvolution” value is given as 3.88; the “DRS, MOLT-4, MAX” value was 3.41. In the assay with REH [4], this compound returned a DRS of 3.91 and a DRS from deconvolution of 4.05.
